In US20260035409A1, “BRINP2-DERIVED PEPTIDE COMPOSITIONS FOR TREATING OBESITY AND WEIGHT MANAGEMENT” (The Board of Trustees of the Leland Stanford Junior …, priority 2022, published 2026):
Ends that are not written are not given here.

How the values were obtained:
[1] = system: cfos expression in INS1 cells; assay: cfos expression after 1 h peptide treatment, INS1 cells (qRT-PCR); format: cell-based, rat; settings: GLP-1 30 μM
Text: A feature of many known biologically active peptide hormones is the presence of an amidated C-terminus, which can be important for peptide bioactivity, as for gastrin-releasing peptide neuromedin-B, or for increased peptide stability, as for GLP-1. Therefore, the peptide library was constructed with an amide (NH2) group at the C-terminus as the only modification for comparative studies between peptides (FIG. 2a). In total, we generated a library of 100 peptides for functional biological screening. The peptide solubility was deduced according to its overall charge and reconstituted accordingly to optimal solubility. For all peptides, quality control by mass spectrometry was performed which validated the purity of the synthesized peptides for the primary screen according to their theoretical molecular weight (FIG. 8). Next, we functionally explored the potency of 100 of the peptides in activating cfos expression, a marker of cellular activity, after 1 hour of peptide treatment across two cell lines, Neuroscreen-1, NS-1 (rat neuronal origin) and INS1 cells (rat pancreatic origin) (FIG. 2b). […]
RNA expression analysis. […] Relative mRNA expression was determined by normalization with Ribosomalprotein S18 (Rsp18) levels using the ΔΔCt method. […]

[2] = fasting blood glucose in lean C57BL/6 mice after I.P. injection (no food); format: in vivo; settings: fasted, peptides 5 mg/kg or GLP-1 2 mg/kg I.P.
Method: (§1) We next performed in vivo studies to determine whether any of these peptides affected food intake or blood glucose levels—two biological consequences of cfos activation. For acute food intake studies, lean, 8-week-old C57BL/6 mice (N=3/group) were fasted for 16 hours prior to administration of vehicle (saline), GLP-1 at 2 mg/kg, or FGF3_4, EDIL3_4, BRNP2_5, SCG1_9, FSTL4_3, and FGF5_5 peptides at 5 mg/kg. The food intake was then monitored over 6 hours.
(§2) For acute experiments, after overnight fasting for 16 hours, 8-week-old C57BL/6 mice were weighed and I.P. injected with either saline, GLP-1 at 2 mg/kg or peptides at 5 mg/kg (N=3 mice per group). Fasted blood glucose and food intake was then monitored for 6 hours.

[3] = metabolic cages (Columbus comprehensive lab animal monitoring system) after single injection; format: in vivo, mice
Method: To study the metabolic effects in more detail, we next used metabolic cages performed with a Columbus comprehensive lab animal monitoring system. C57BL6/J mice were acclimated to the cages and randomized into two groups, followed by an I.P. injection with either vehicle (saline) or 5 mg/kg BRP (N=4/group).
Food intake, energy expenditure and body composition measurements. Measurements of accumulated food intake and VO2 were performed using a Comprehensive Lab Animal Monitoring System at room temperature (20-22° C.) (Oxymax, Columbus Instruments) as previously described. Singly housed mice were acclimated in metabolic cages for at least 24 h before the start of experiment to minimize stress.

[4] = system: cfos expression in NS-1 cells; assay: cfos expression after 1 h peptide treatment, NS-1 cells (qRT-PCR); format: cell-based, rat; settings: for cfos activation, alanine substitutions in the BRP sequence: 100 μg/kg, fully active = >15-fold over vehicle
Text: A feature of many known biologically active peptide hormones is the presence of an amidated C-terminus, which can be important for peptide bioactivity, as for gastrin-releasing peptide neuromedin-B, or for increased peptide stability, as for GLP-1. Therefore, the peptide library was constructed with an amide (NH2) group at the C-terminus as the only modification for comparative studies between peptides (FIG. 2a). In total, we generated a library of 100 peptides for functional biological screening. The peptide solubility was deduced according to its overall charge and reconstituted accordingly to optimal solubility. For all peptides, quality control by mass spectrometry was performed which validated the purity of the synthesized peptides for the primary screen according to their theoretical molecular weight (FIG. 8). Next, we functionally explored the potency of 100 of the peptides in activating cfos expression, a marker of cellular activity, after 1 hour of peptide treatment across two cell lines, Neuroscreen-1, NS-1 (rat neuronal origin) and INS1 cells (rat pancreatic origin) (FIG. 2b). Glucagon-like peptide 1 (GLP-1^7-37), a 30-mer peptide ligand for the glucagon receptor family of G protein-coupled receptors in pancreatic 3-cells, was used as a positive control at 30 μM in INS1 cells. NGF (Nerve Growth Factor) was used as a positive control at 2 nM in NS-1 cells. Expectedly, we find that GLP-1^7-37 induces a ˜4-fold elevation of cfos expression in INS1 cells and NGF induces a ˜10-fold induction of cfos expression in NS-1 cells (FIG. 2b). Across the 100 tested peptides, 6 peptides, FGF34, EDIL3_4, BRNP2_5, SCG1_9, FSTL4_3, and FGF5_5 induced more than a >5-fold cfos expression across both cell lines compared with vehicle.
Cell culture. NS-1 rat neuronal cell line was cultured with RPMI 1640 medium (Gibco) supplemented with 10% FBS and 1% L-glutamine. INS-1 832/13 rat insulinoma cell line (#SCC207) was cultured with RPMI 1640 medium (Gibco) supplemented with 10% FBS, 1% L-glutamine, 10 mM HEPES, 1 mM NaPyruvate and 50 μM β-mercaptoethanol. For peptide activity assay, 3×10^5 NS-1 and INS1 cells were plated in 12 well-plates. The next day, cells were washed twice with warm PBS and starved in serum-free RPMI overnight. Indicated concentrations of NGF (2 nM) or GLP-1 (30 μM) or peptides (100 μg/ml) were added and incubated for 1 hr at 37° C. Cells were washed with PBS and RNA was isolated for cfos expression analysis.
RNA expression analysis. Total RNA was isolated using TRIzol (Thermo Fischer Scientific) and Rneasy mini kits (QIAGEN). RNA was reverse transcribed using the ABI high-capacity cDNA synthesis kit. For qRT-PCR analysis, cDNA, primers and SYBR-green fluorescent dye (ABI) was used. Relative mRNA expression was determined by normalization with Ribosomalprotein S18 (Rsp18) levels using the ΔΔCt method. The primer sequences used are […] and […] for Rsp18 and […] and […] for cfos.

[5] = acute food intake in fasted lean C57BL/6 mice after I.P. injection; format: in vivo; settings: 5 mg/kg I.P., up to 6 hours
Method: as §1
Mouse studies. Animal experiments were performed per procedures approved by the Institutional Animal Care and Use Committee of the Stanford Animal Care and Use Committee (APLAC) protocol number #32982. C57BL/6J male mice were purchased from the Jackson Laboratory (#000664) and were used after 1 week of acclimatization after import into the facility. Unless otherwise stated, all mice were in good health and housed in a temperature-controlled (20-22° C.) room on a 12-hour light/dark cycle with ad lib access to food and water.
as §2

[6] = open-field assay 30 min after single injection; format: in vivo, mice; settings: 5 mg/kg I.P., 30 min post-injection
Method: Open field assay. 8-week-old C57BL/6 mice were transferred to the open-field facility and housed for 7 days for habituation before the test. Mice were weighed and then I.P. injected with either saline or BRP peptide at 5 mg/kg (N=15 mice per group, […] solution diluted in saline, total injection volume 100 ul per mouse). 30 min post-injection, the open-field test was performed in an Open Field Activity Arena (Med Associates Inc., St. Albans, VT. Model ENV-515) mounted with three planes of infrared detectors and within a specially designed sound-attenuating chamber (Med Associates Inc., St. Albans, VT. MED-017M-027). The arena was 43 cm (L)×43 cm (W)×30 cm (H), and the sound-attenuating chamber was 74 cm (L)×60 cm (W)×60 cm (H). Each mouse was placed in the corner of the testing arena and allowed to explore the arena for 10 minutes while being tracked by an automated tracking system. Data was analyzed using software Activity Monitor Version 7.8. Parameters analyzed include distance moved and time spent in the periphery and center of the arena. The periphery was defined as the zone 5 cm away from the arena wall.

Substance	food intake, alanine substitutions compared with BRP [5]	cfos activation, alanine substitutions in the BRP sequence [4]	further results
GLP-1: 30-mer peptide ligand for the glucagon receptor family of GPCRs, positive control			elevation of cfos expression (positive control) [1]: ~4 fold; blood glucose [2]: lowered blood glucose; energy expenditure ([3]; single injection GLP-1 2 mg/kg): without affecting; food intake (metabolic cages) ([3]; single injection GLP-1 2 mg/kg): acutely suppresses; locomotor activity ([3]; single injection GLP-1 2 mg/kg): without affecting; meal size ([3]; single injection GLP-1 2 mg/kg): acutely suppresses
NGF: Nerve Growth Factor, positive control in NS-1 cells [reference compound]			induction of cfos expression (positive control) ([4]; NGF 2 nM): ~10 fold
THAILRRLFNLC [Ala substitution on residue 3]	reduced efficacy in lowering food intake	important to retain full activity	
THRALRRLFNLC [Ala substitution on residue 4]	reduced efficacy in lowering food intake		
THRIARRLFNLC [Ala substitution on residue 5]	reduced efficacy in lowering food intake		
THRILARLFNLC [Ala substitution on residue 6]	reduced efficacy in lowering food intake		
THRILRALFNLC [Ala substitution on residue 7]	improves the appetite-suppressing effect of BRP		
THRILRRAFNLC [Ala substitution on residue 8]	reduced efficacy in lowering food intake	important to retain full activity	
THRILRRLFALC [Ala substitution on residue 10]		important to retain full activity	
THRILRRLFNLA [Ala substitution on residue 12]	reduced efficacy in lowering food intake	important to retain full activity	
THRILRRLFNLC (listed as Homo sapiens) [non-amidated BRP]			cfos activity in words ([4]; 100 μg/ml): no activity
THRILRRLFNLC-NH2 [BRP, THRILRRLFNLC]			anxiety-like behavior (open field) [6]: does not affect anxiety-like behavior; ambulatory activity ([3]; single I.P. injection 5 mg/kg): does not alter
